Earlier results as cited in patent US20100119604A1, “Solid drug formulation and device for storage and controlled delivery thereof” (BOSTON SCIENTIFIC SCIMED, INC., priority 2003, published 2010).
Structures can show the parent of a compound that is named as a salt.

Settings: daily exposure limit of excipient / residual solvent per ICH Guideline Q3C

Compound | Daily limit [mg]
CC(Cl)(Cl)Cl [1,1,1-Trichloroethane] | 15
ClC=C(Cl)Cl [1,1,2-Trichloroethene] | 0.8
C=C(Cl)Cl [1,1-Dichloroethene] | 0.08
ClCCCl [1,2-Dichloroethane] | 0.05
COCCOC [1,2-Dimethoxyethane] | 1.0
CCOCCO [2-Ethoxyethanol] | 1.6
COCCO [2-Methoxyethanol] | 0.5
CC(=O)O [Acetic acid] | 50
CC(C)=O [Acetone] | 50
CC#N [Acetonitrile] | 4.1
COc1ccccc1 [Anisole] | 50
c1ccccc1 [Benzene] | 0.02
CCCCOC(C)=O [Butyl acetate] | 50
ClC(Cl)(Cl)Cl [Carbon tetrachloride] | 0.04
Clc1ccccc1 [Chlorobenzene] | 3.6
CC(C)c1ccccc1 [Cumene] | 50
C1CCCCC1 [Cyclohexane] | 38.8
ClCCl [Dichloromethane] | 6.0
C[S+](C)[O-] [Dimethyl sulfoxide] | 50
CCO [Ethanol] | 50
CCOCC [Ethyl ether] | 50
CCOC=O [Ethyl formate] | 50

Compound | Daily limit [mg]
OCCO [Ethyleneglycol] | 6.2
NC=O [Formamide] | 2.2
O=CO [Formic acid] | 50
CCCCCO [Formulation 1-Pentanol, 1-Pentanol] | 50
CCCO [Formulation 1-Propanol, 1-Propanol] | 50
CCC(C)O (stereo not shown) [Formulation 2-Butanol, 2-Butanol] | 50
CCCCCCC [Heptane] | 50
CCCCCC [Hexane] | 2.9
COC(C)=O [Methyl acetate] | 50
CCCCC(C)=O [Methylbutyl ketone] | 0.5
CC1CCCCC1 [Methylcyclohexane] | 11.8
CC(=O)CC(C)C [Methylisobutyl ketone] | 50
CN(C)C=O [N,N-Dimethylformamide] | 8.8
CN1CCCC1=O [N-Methylpyrrolidone] | 5.3
C[N+](=O)[O-] [Nitromethane] | 0.5
CCCOC(C)=O [Propyl acetate] | 50
c1ccncc1 [Pyridine] | 2.0
C1CCOC1 [Tetrahydrofuran] | 7.2
c1ccc2c(c1)CCCC2 [Tetralin] | 1.0
COC(C)(C)C [tert-Butylmethyl ether] | 50
Xylene | 21.7
